{"source": "patent US12070477B2", "about": "“Lactobacillus sp. strain having ability to inhibit growth of vaginal pathogenic microorganisms” (KoBioLabs, Inc., priority 2015, dated 2024)", "test_system": "Gardnerella vaginalis", "assay": "Gardnerella vaginalis-infected mouse vaginitis model, microbiome analysis after vaginal administration", "format": "in vivo, female mice (BALB/c mice)", "protocol": "The hormone control and estrous cycle were induced by intraperitoneally injecting 0.5 mg of beta-esteradiol 3-benzonate to female mice (BALB/c mice). After three days, they were directly infected with Gardnerella vaginalis in the vagina at a concentration of 1×10^7 CFU per mouse to establish a vaginitis animal model. Thereafter, four kinds of Lactobacillus isolates corresponding to 10^8 to 10^9 CFU per mouse were vaginally administered (7 mice per group). On day 2, the total bacterial DNA was extracted from the vaginal samples washed with 0.1 mL of PBS (Phosphate Buffered Saline) and microbiome community analysis was performed to measure the relative abundance of Gardnerella vaginalis and other vaginal microbiota. […] The analyzed sequences were subjected to microbiome analysis including taxon profile, α-diversity and β-diversity showing the difference in community structure between groups through Qiime pipeline, and the change in the amount of Gardnerella vaginalis pathogens upon the administration of Lactobacillus isolates was evaluated by calculating relative abundances (/% GV treatment group)."}
{"smiles": "Cc1ncc([N+](=O)[O-])n1CCO", "note": "[MTZ, metronidazole]", "values": [{"measurement": "community structure of the vaginal microflora (Unweighted UniFrac distance)", "setting": "compared to Gardnerella vaginalis-infected control group, after 2 days of administration", "value": "no change in the community structure"}, {"measurement": "Relative abundance (/% GV group) of Gardnerella vaginalis", "setting": "vaginal administration after infection, day 2, 16S microbiome analysis, GV group = 100", "value": "74.9 /% GV group"}]}
